Legend:
Type in all cases: cell-based
[1] = system: human dermal fibroblasts CCC-ESF-1; assay: Anti-fibrosis activity test: inhibition of proliferation of human dermal fibroblasts CCC-ESF-1 (CCK-8); conditions: Fibroblast
Method in brief: (§1)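 Cells seeded at 2×10^4 cells/mL, adhered 24 h, then exposed to compound concentrations in triplicate for 48 h at 37° C, 5% CO2. CCK-8 added for 2 h, absorbance at 450 nm; inhibition = (1−Ai/Ao)×100% versus blank control, IC50 calculated.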

[2] = system: human hepatic stellate cells LX-2; assay: Anti-fibrosis activity test: inhibition of proliferation of human hepatic stellate cells LX-2 (CCK-8); conditions: Homo sapiens, 48 h
Method in brief: as §1

NF-κB = assay: Immunological activity test: inhibition of NF-κB activity; conditions: initial concentration of 30 μM; a/b isomers given as first/second symbol; read-out: IC50 (μM), inhibitory activity against NF-κB
Method in brief: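 IC50 values come from further analysis of the data after an initial test at a single 30 μM concentration. Parthenolide served as the reference inhibitor.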

[3] = system: cardiac fibroblast RAT-iCell-C002; assay: Anti-fibrosis activity test: inhibition of proliferation of cardiac fibroblast RAT-iCell-C002 (CCK-8); conditions: Cardiac fibroblast, 48 h
Method in brief: as §1

[4] = system: human embryonic lung fibroblast IMR-90; assay: Anti-fibrosis activity test: inhibition of proliferation of human embryonic lung fibroblast IMR-90 (CCK-8)
Method in brief: as §1

[5] = system: human lung fibroblasts HFL1; assay: Anti-fibrosis activity test: inhibition of proliferation of human lung fibroblasts HFL1 (CCK-8); conditions: Homo sapiens, HFL1, 48 h
Method in brief: as §1

BHK-21 cells = assay: Anti-fibrosis activity test: inhibition of BHK-21 cell proliferation (CCK-8); conditions: Mesocricetus auratus, BHK-21, 48 h
Method in brief: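 Each concentration was tested in triplicate on adhered BHK-21 cells for 48 h, with pirfenidone as reference. A 2 h CCK-8 incubation preceded absorbance reading at 450 nm, and IC50 was obtained from percent inhibition versus blank.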

[6] = system: mouse macrophages (RAW264.7); assay: Lipopolysaccharide-induced NO secretion in macrophages (Griess); conditions: Mus musculus, RAW264.7, 24 h, RAW264.7, LPS 1 μg/ml, a/b isomers given as first/second symbol, read-out: IC50 (μM), inhibition of lipopolysaccharide-induced NO secretion in macrophages
Method in brief: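 RAW264.7 macrophages in DMEM with 10% FBS received test samples at several concentrations and were stimulated with 1 μg/ml LPS for 24 h. NO in the supernatant was measured with the Griess reagent at 548 nm, […].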

[7] = system: human fibrosarcoma cells HT-1080; assay: Anti-fibrosis activity test: inhibition of proliferation of human fibrosarcoma cells HT-1080 (CCK-8); conditions: Homo sapiens, HT-1080, 48 h
Method in brief: as §1

[8] = human dermal fibroblasts CCC-ESF-1, CCK-8, 48 hours
[9] = human hepatic stellate cells LX-2, CCK-8, 48 hours
[10] = cardiac fibroblast RAT-iCell-C002, CCK-8, 48 hours
[11] = human embryonic lung fibroblast IMR-90, CCK-8, 48 hours
[12] = human lung fibroblasts HFL1, CCK-8, 48 hours
[13] = CCK-8, 48 hours after administration
[14] = human fibrosarcoma cells HT-1080, CCK-8, 48 hours
[15] = Homo sapiens, CCC-ESF-1 cells, 48 h, CCK-8
[16] = Homo sapiens, IMR-90 cells, 48 h, CCK-8

Row | SMILES | IC50 (NF-κB) [µM] | IC50 [6] [µM] | IC50 [7, 14] [mM] | IC50 [1, 8] [mM] | IC50 [2, 9] [mM] | IC50 [3, 10] [mM] | IC50 [4, 11] [mM] | IC50 [5, 12] [mM] | IC50 (BHK-21 cells; [13]) [mM] | IC50 [1, 15] [mM] | IC50 ([2]; LX-2, 48 h, LX-2 cells, CCK-8) [mM] | IC50 ([3]; RAT-iCell-C002 cells, CCK-8) [mM] | IC50 [4, 16] [mM] | IC50 ([5]; HFL1 cells, 48 h, CCK-8) [mM] | IC50 (BHK-21 cells; 48 h, CCK-8) [mM] | IC50 ([7]; HT-1080 cells, 48 h, CCK-8) [mM]
1 | O=C1c2c(n(Cc3ccc(F)cc3)c3cccc(F)c3c2=O)-c2cccn21 [Compound 468a, 8-Fluoro-4-(4-fluorobenzyl)-9H-pyrrolizino[1,2-b]quinoline-9,10(4H)-dione] | 0.1 to 1 | 1 to 10 | 0.05 to 5 | 0.05 to 5 | 0.05 to 5 | 0.05 to 5 | 0.05 to 5 | 0.05 to 5 | < 0.05 | – | – | – | – | – | – | –
2 | Cc1ccc(C)c2c(=O)c3c([nH]c12)-c1cccn1C3=O [Compound 772a, 5,8-Dimethyl-9H-pyrrolizino[1,2-b]quinoline-9,10(4H)-dione] | 1 to 10 | 1 to 10 | – | – | – | – | – | – | – | 0.05 to 5 | 0.05 to 5 | 0.05 to 5 | 0.05 to 5 | 0.05 to 5 | < 0.05 | 0.05 to 5
3 | O=C1c2c([nH]c3cc(C(F)(F)F)ccc3c2=O)-c2cccn21 [Compound 536a, 6-(Trifluoromethyl)-9H-pyrrolizino[1,2-b]quinoline-9,10(4H)-dione] | 1 to 10 | 1 to 10 | 0.05 to 5 | 0.05 to 5 | 0.05 to 5 | 0.05 to 5 | 0.05 to 5 | 0.05 to 5 | 0.05 to 5 | – | – | – | – | – | – | –
4 | Cc1ccc(Cn2c3c(c(=O)c4ccccc42)C(=O)n2cccc2-3)cc1 [Compound 604a, 4-(4-Methylbenzyl)-9H-pyrrolizino[1,2-b]quinoline-9,10(4H)-dione] | 1 to 10 | 1 to 10 | < 0.05 | 0.05 to 5 | 0.05 to 5 | 0.05 to 5 | 0.05 to 5 | 0.05 to 5 | 0.05 to 5 | – | – | – | – | – | – | –
5 | CN(C)CCOc1c2c(nc3ccccc13)-c1cccn1C2=O [Compound 12b, 9-(2-(dimethylamino)ethoxy)-10H-pyrrolizino[1,2-b]quinolin-10-one] | 1 to 10 | 1 to 10 | 0.05 to 5 | 0.05 to 5 | 0.05 to 5 | 0.05 to 5 | 0.05 to 5 | 0.05 to 5 | 0.05 to 5 | – | – | – | – | – | – | –
6 | COc1cc(Cn2c3c(c(=O)c4ccccc42)C(=O)n2cccc2-3)cc(OC)c1 [Compound 580a, 4-(3,5-Dimethoxybenzyl)-9H-pyrrolizino[1,2-b]quinoline-9,10(4H)-dione] | 1 to 10 | 0.1 to 1 | 0.05 to 5 | 0.05 to 5 | 0.05 to 5 | 0.05 to 5 | 0.05 to 5 | 0.05 to 5 | 0.05 to 5 | – | – | – | – | – | – | –
7 | CC(C)(C)COc1c2c(nc3ccccc13)-c1cccn1C2=O [Compound 656b, 9-(neopentyloxy)-10H-pyrrolizino[1,2-b]quinolin-10-one] | 1 to 10 | 1 to 10 | 0.05 to 5 | 0.05 to 5 | 0.05 to 5 | 0.05 to 5 | 0.05 to 5 | 0.05 to 5 | 0.05 to 5 | – | – | – | – | – | – | –
8 | O=C1c2c(nc3ccccc3c2OCCCCN2CCNCC2)-c2cccn21 [Compound 670b, 9-(4-(piperazin-1-yl)butoxy)-10H-pyrrolizino[1,2-b]quinolin-10-one] | 1 to 10 | 1 to 10 | – | – | – | – | – | – | – | 0.05 to 5 | 0.05 to 5 | 0.05 to 5 | 0.05 to 5 | 0.05 to 5 | 0.05 to 5 | 0.05 to 5
9 | CC(C)(C)c1ccc(Cn2c3c(c(=O)c4ccccc42)C(=O)n2cccc2-3)cc1 [Compound 605a, 4-(4-(Tert-butyl)benzyl)-9H-pyrrolizino[1,2-b]quinoline-9,10(4H)-dione] | 1 to 10 | 1 to 10 | 0.05 to 5 | 0.05 to 5 | 0.05 to 5 | 0.05 to 5 | 0.05 to 5 | 0.05 to 5 | 0.05 to 5 | – | – | – | – | – | – | –

Now from value to compound, other results behind:

Row | IC50 (NF-κB) [µM] | IC50 [6] [µM] | IC50 [7, 14] [mM] | SMILES | IC50 [1, 8] [mM] | IC50 [2, 9] [mM] | IC50 [3, 10] [mM] | IC50 [4, 11] [mM] | IC50 [5, 12] [mM] | IC50 (BHK-21 cells; [13]) [mM] | IC50 [1, 15] [mM] | IC50 ([2]; LX-2, 48 h, LX-2 cells, CCK-8) [mM] | IC50 ([3]; RAT-iCell-C002 cells, CCK-8) [mM] | IC50 [4, 16] [mM] | IC50 ([5]; HFL1 cells, 48 h, CCK-8) [mM] | IC50 (BHK-21 cells; 48 h, CCK-8) [mM] | IC50 ([7]; HT-1080 cells, 48 h, CCK-8) [mM]
10 | 1 to 10 | 1 to 10 | 0.05 to 5 | O=C1c2c(nc3ccccc3c2OCc2cccc(Cl)c2F)-c2cccn21 [Compound 582b, 9-((3-chloro-2-fluorobenzyl)oxy)-10H-pyrrolizino[1,2-b]quinolin-10-one] | 0.05 to 5 | 0.05 to 5 | 0.05 to 5 | 0.05 to 5 | 0.05 to 5 | 0.05 to 5 | – | – | – | – | – | – | –
11 | 1 to 10 | 1 to 10 | 0.05 to 5 | Cc1cccc(COc2c3c(nc4ccccc24)-c2cccn2C3=O)c1 [Compound 609b, 9-((3-methylbenzyl)oxy)-10H-pyrrolizino[1,2-b]quinolin-10-one] | 0.05 to 5 | 0.05 to 5 | 0.05 to 5 | 0.05 to 5 | 0.05 to 5 | 0.05 to 5 | – | – | – | – | – | – | –
12 | 1 to 10 | 0.1 to 1 | 0.05 to 5 | O=C1c2c(n(Cc3ccc(C(F)(F)F)cc3)c3ccccc3c2=O)-c2cccn21 [Compound 591a, 4-(4-(Trifluoromethyl)benzyl)-9H-pyrrolizino[1,2-b]quinoline-9,10(4H)-dione] | 0.05 to 5 | 0.05 to 5 | 0.05 to 5 | 0.05 to 5 | 0.05 to 5 | 0.05 to 5 | – | – | – | – | – | – | –
13 | 10 to 50 | 1 to 10 | 0.05 to 5 | N#Cc1ccc(F)cc1COc1c2c(nc3ccccc13)-c1cccn1C2=O [Compound 616b, 4-fluoro-2-(((10-oxo-10H-pyrrolizino[1,2-b]quinolin-9-yl)oxy)methyl)benzonitrile] | 0.05 to 5 | 0.05 to 5 | 0.05 to 5 | 0.05 to 5 | 0.05 to 5 | 0.05 to 5 | – | – | – | – | – | – | –
14 | 0.1 to 1 | 0.1 to 1 | < 0.05 | N#Cc1cccc2c(=O)c3c([nH]c12)-c1cccn1C3=O [Compound 447a, 9,10-Dioxo-4,10-dihydro-9H-pyrrolizino[1,2-b]quinoline-5-carbonitrile] | 0.05 to 5 | 0.05 to 5 | 0.05 to 5 | 0.05 to 5 | 0.05 to 5 | 0.05 to 5 | – | – | – | – | – | – | –
15 | 1 to 10 | 1 to 10 | 0.05 to 5 | O=C1c2c(nc3ccccc3c2OCc2cc(C(F)(F)F)cc(C(F)(F)F)c2)-c2cccn21 [Compound 607b, 9-((3,5-bis(trifluoromethyl)benzyl)oxy)-10H-pyrrolizino[1,2-b]quinolin-10-one] | 0.05 to 5 | 0.05 to 5 | 0.05 to 5 | 0.05 to 5 | 0.05 to 5 | 0.05 to 5 | – | – | – | – | – | – | –
16 | 1 to 10 | 1 to 10 | 0.05 to 5 | O=C1c2c([nH]c3c(O)cccc3c2=O)-c2cccn21 [Compound 445a, 5-Hydroxy-9H-pyrrolizino[1,2-b]quinoline-9,10(4H)-dione] | 0.05 to 5 | 0.05 to 5 | 0.05 to 5 | 0.05 to 5 | 0.05 to 5 | 0.05 to 5 | – | – | – | – | – | – | –
17 | 1 to 10 | 1 to 10 | 0.05 to 5 | N#Cc1ccc(Cn2c3c(c(=O)c4ccccc42)C(=O)n2cccc2-3)cc1 [Compound 590a, 4-((9,10-Dioxo-9H-pyrrolizino[1,2-b]quinolin-4(10H)-yl)methyl)benzonitrile] | 0.05 to 5 | 0.05 to 5 | 0.05 to 5 | 0.05 to 5 | 0.05 to 5 | 0.05 to 5 | – | – | – | – | – | – | –
18 | 1 to 10 | 1 to 10 | 0.05 to 5 | O=C1c2c(nc3ccccc3c2OCc2ccccc2I)-c2cccn21 [Compound 576b, 9-((2-iodobenzyl)oxy)-10H-pyrrolizino[1,2-b]quinolin-10-one] | 0.05 to 5 | 0.05 to 5 | 0.05 to 5 | 0.05 to 5 | 0.05 to 5 | 0.05 to 5 | – | – | – | – | – | – | –
19 | 1 to 10 | 10 to 50 | 0.05 to 5 | O=C1c2c(nc3ccc(C(F)(F)F)cc3c2O)-c2cccn21 [Compound 282b, 9-hydroxy-7-(trifluoromethyl)-10H-pyrrolizino[1,2-b]quinolin-10-one] | 0.05 to 5 | 0.05 to 5 | 0.05 to 5 | 0.05 to 5 | 0.05 to 5 | 0.05 to 5 | – | – | – | – | – | – | –
